The target of data set [1] is T1, WT PfPKG (Plasmodium falciparum, UniProt Q8I719).
T1 construct: recombinant full length wild type (WT) PfPKG; His6 (N); host or cells: E. coli BL21
Also noted: species or system P. falciparum. The note with it: for LE: ligand efficiency; for LLE: lipophilic ligand efficiency. An excerpt:
A scoring system was developed to further prioritize interesting compounds. […] Three points were given to compounds that inhibit HuPKGIα at least 3 orders of magnitude less than WT PfPKG. […] We also considered how well the compounds bind to the target by taking into account two physicochemical properties: ligand efficiency (LE, 1.37 x pIC50/number heavy atoms) is a characterization of a compound’s efficiency on a per-heavy-atom basis[51] and lipophilic ligand efficiency (LLE, pIC50 – clogP) is a parameter used in drug design which links potency and lipophilicity in an attempt to estimate drug-likeness[52]. The ClogP coefficient measures lipophilicity. Values of LE ≥ 0.3 and LLE ≥ 5 are typically accepted as good starting points for optimizations efforts.

Data set [2] has as its target PI3KD (Homo sapiens, UniProt O00329). Briefly: Preliminary safety test on human PI3KD kinase. The format is biochemical.
Data set [3] concerns HepG2 cells. Briefly: Cytotoxicity assay (CellTiter-Glo). The format is cell-based. The note with it: Homo sapiens; HepG2 cytotoxicity; read-out: HepG2. On the procedure:
Cytotoxicity assays were performed on HepG2 cells as previously described. HepG2 cells were removed from a T-175 TC flask using 5 mL Eagle’s MEM (containing 10% FBS, 1% NEAA, 1% penicillin/streptomycin) and dispersed in the medium. Seeding density was checked to ensure that new mono-layers were not more than 50% confluent at the time of harvesting. Cells were added to 500 mL of the same medium at a final density of 1.2 × 10^5 cells/mL. They were then dispensed (25 μL, about 3,000 cells per well) into 384-well clear-bottom plates using a Multidrop Combi dispenser. Test compounds (250 nL) were dispensed into the plates with an EchoH liquid handler prior to addition of the cells. Plates were incubated for 48 h at 37 °C, 5% CO2. After incubation, plates were equilibrated at room temperature for 30 minutes before proceeding to develop the luminescent signal. The CellTiter-GloH Reagent was allowed to equilibrate at room temperature for 30 minutes and added to the plates (25 μL per well) using a Multidrop Combi dispenser. Plates were left for 10 minutes at room temperature for stabilization and then read using a Perkin Elmer ViewLux.
For orientation: In ATP-based viability assays light output follows the ATP content of the culture.

For data set [4], the target named is LCK (Homo sapiens, UniProt P06239). Kind of data set: Preliminary safety test on human LCK kinase. The format is biochemical. How it is done: (§1) We explored the binding mode by also testing compounds on the gatekeeper mutant enzyme TQ PfPKG. […] A preliminary safety test was performed on human AuroraB and LCK kinases which often underpin toxicity issues. […] Further assays for compound characterization included determination of solubility and cytotoxicity (HepG2 inhibition).

Data set [5] can be described thus: ChromlogD (lipophilicity).
In data set [6] the target is T1, WT PfPKG. Briefly: Kinase Glo enzymatic assay, recombinant WT PfPKG. The class given is biochemical, P. falciparum. The conditions noted are these: WT PfPKG (μM), recombinant WT PfPKG. On the procedure: To identify new PKG inhibitor scaffolds, the 1.7 million GlaxoSmithKline Full Diversity collection was tested at a single final concentration of 10 μM against recombinant full length wild type (WT) PfPKG using a Kinase Glo-based assay (Promega). The results gave a robust Z′ mean value of 0.85. At an average statistical cut-off of 30%, 20,174 primary hits were identified with an overall hit rate of 1%. Fresh samples of these primary hits were tested in duplicate against WT PfPKG and also against human PKGIα (HuPKGIα) (Supplementary Fig. 1) at a final concentration of 10 μM (confirmation step).
Protein production was outsourced to the Division of Signal Transduction Therapy, University of Dundee. Briefly, the pTRChis expression vectors (Invitrogen) containing an N-terminally His6-tagged PfPKG wildtype and T618Q were used to transform BL21 cells (protocol adapted from[23]). The cells were grown at 37 °C until the OD600 was 0.4–0.6 then the temperature was reduced to 15 °C and the cells were induced with 250 µM IPTG and grown for a further 16–18 hours before harvesting. The His6-PfPKG was purified on Cobalt agarose followed by gel filtration and the protein was dialysed into 25 mM Hepes pH 7.5, 0.1 mM EGTA, 150 mM NaCl, 50% glycerol and 2 mM DTT.
Initial optimization of the PKG assay was performed manually in 384-well plates and analysed with GraFit 7. The buffer for all assays was 25 mM HEPES pH 7.3 (GIBCO), 10 mM MgCl2 (Sigma), 2 mM DTT (Sigma), 0.01 mM cGMP (Sigma), 0.1 mg/ml BSA (Ambion). Enzymatic activity was tested using a luminescence-based kit (Promega KinaseGlo). Addition of the first reagent depletes the unused ATP and addition of the second reagent converts ADP (product of the kinase reaction) to ATP, which is then measured through a luciferin/luciferase reaction. The amount of luminescence is directly proportional to ATP turnover by the kinase. The kit was chosen because it can be miniaturized to small volumes (i.e. 4 µl) in 1536-well plates, for use in HTS.
We used PKA peptide substrate (SCP0212, Sigma-Aldrich) for WT and TQ PfPKG, dissolved in milliQ water at a final concentration of 5 mM, and Long S6 peptide substrate (produced at the University of Dundee, sequence […]) for HuPKGIα, dissolved in water at a final concentration of 30 mM.
We calculated the Michaelis-Menten (Km) constant for ATP and peptide substrate (PKA or Long S6) for all enzymes using GraphPad Prism (Supplementary Figs 2 and 3 and Supplementary Table 3). In order to identify different types of PKG inhibitors, including ATP competitive or non-competitive inhibitors, as well as inhibitors that bind to the peptide substrate pocket, we performed all assays using ATP and peptide substrate at a concentration equal to the Km. We also determined enzyme activity by calculating ATP turnover (Kcat) over the Km (Supplementary Table 3). The Kcat was calculated as (Vmax*slope)/[E] where Vmax is the maximum velocity and [E] is the concentration of the enzyme.
The plates containing the compounds were prepared at GSK in Upper Providence or Stevenage. Compounds were tested at a single final concentration of 10 µM or in a dose response with a range of concentrations starting from 100 μM to 1.6 nM (1 in 3 serial dilutions). Compounds were dispensed in the plates at the required concentration in a 40 nl volume. All plates (1536-well white Greiner) contained 40 nl of DMSO in lanes 11 and 12 (control 1, 100% enzyme activity) and were empty in lanes 35 and 36 (control 2, 0% enzyme activity). The plates were removed from −20 °C 1 hour before starting the assay. Using a Multidrop Combi dispenser (Thermo Scientific), 2 µl of the buffer containing ATP and the substrate were added to all wells then 2 µl of buffer only were added to column 35 and 36. Finally 2 µl of buffer containing the enzyme were dispensed in all the plate wells except for lanes 35 and 36. […]
(In general: In Kinase-Glo more light means more ATP remaining.)

The target in data set [7] is AuroraB (Homo sapiens, UniProt Q96GD4). Briefly: Preliminary safety test on human AuroraB kinase. The format is biochemical. On the procedure: as §1

A value given as a limit tells only on which side of the number the result lay.

T1 sequence (Q8I719 whole entry): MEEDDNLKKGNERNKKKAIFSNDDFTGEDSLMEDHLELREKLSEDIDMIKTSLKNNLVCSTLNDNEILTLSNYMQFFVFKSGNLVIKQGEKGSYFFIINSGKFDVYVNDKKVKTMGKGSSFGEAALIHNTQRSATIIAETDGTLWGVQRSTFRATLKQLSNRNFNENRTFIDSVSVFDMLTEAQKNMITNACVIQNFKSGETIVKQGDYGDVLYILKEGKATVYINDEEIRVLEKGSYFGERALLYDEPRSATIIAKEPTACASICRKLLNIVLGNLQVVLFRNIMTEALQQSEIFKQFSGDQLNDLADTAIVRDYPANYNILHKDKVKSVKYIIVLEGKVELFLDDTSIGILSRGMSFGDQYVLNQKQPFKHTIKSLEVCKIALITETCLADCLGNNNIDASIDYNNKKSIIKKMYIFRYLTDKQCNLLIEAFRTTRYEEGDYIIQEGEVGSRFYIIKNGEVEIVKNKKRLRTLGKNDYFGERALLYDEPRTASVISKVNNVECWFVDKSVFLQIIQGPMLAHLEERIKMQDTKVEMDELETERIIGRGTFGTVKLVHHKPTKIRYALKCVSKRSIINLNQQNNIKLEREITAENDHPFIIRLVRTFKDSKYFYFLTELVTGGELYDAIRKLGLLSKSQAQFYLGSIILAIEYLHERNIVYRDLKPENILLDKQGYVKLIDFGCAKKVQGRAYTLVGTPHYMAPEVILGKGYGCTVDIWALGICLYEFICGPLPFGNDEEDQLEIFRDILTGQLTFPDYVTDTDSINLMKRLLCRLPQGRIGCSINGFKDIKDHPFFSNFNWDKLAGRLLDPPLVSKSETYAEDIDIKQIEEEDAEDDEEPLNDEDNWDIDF
AuroraB, sequence (Q96GD4 whole entry): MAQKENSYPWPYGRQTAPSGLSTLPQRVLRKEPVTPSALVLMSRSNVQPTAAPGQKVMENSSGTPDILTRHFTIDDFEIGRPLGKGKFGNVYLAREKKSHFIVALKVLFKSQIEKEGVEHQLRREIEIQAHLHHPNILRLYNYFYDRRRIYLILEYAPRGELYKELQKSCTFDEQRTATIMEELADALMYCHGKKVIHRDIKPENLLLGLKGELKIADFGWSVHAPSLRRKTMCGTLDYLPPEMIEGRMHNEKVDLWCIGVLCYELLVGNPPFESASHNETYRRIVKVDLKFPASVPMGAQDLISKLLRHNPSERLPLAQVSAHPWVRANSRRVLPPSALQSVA
LCK, sequence (P06239 whole entry): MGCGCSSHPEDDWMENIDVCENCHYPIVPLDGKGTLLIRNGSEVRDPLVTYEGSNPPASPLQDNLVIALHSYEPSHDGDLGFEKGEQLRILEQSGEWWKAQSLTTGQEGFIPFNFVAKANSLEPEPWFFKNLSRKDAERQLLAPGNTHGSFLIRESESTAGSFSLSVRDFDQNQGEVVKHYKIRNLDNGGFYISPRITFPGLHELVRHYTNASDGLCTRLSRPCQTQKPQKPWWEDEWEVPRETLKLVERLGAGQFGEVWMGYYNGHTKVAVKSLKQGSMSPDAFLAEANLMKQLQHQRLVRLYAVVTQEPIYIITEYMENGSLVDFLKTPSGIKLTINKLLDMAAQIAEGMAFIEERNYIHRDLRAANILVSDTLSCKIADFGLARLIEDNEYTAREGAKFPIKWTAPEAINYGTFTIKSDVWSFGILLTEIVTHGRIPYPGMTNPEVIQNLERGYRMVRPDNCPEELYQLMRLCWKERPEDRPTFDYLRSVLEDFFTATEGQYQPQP
PI3KD, sequence (O00329 whole entry): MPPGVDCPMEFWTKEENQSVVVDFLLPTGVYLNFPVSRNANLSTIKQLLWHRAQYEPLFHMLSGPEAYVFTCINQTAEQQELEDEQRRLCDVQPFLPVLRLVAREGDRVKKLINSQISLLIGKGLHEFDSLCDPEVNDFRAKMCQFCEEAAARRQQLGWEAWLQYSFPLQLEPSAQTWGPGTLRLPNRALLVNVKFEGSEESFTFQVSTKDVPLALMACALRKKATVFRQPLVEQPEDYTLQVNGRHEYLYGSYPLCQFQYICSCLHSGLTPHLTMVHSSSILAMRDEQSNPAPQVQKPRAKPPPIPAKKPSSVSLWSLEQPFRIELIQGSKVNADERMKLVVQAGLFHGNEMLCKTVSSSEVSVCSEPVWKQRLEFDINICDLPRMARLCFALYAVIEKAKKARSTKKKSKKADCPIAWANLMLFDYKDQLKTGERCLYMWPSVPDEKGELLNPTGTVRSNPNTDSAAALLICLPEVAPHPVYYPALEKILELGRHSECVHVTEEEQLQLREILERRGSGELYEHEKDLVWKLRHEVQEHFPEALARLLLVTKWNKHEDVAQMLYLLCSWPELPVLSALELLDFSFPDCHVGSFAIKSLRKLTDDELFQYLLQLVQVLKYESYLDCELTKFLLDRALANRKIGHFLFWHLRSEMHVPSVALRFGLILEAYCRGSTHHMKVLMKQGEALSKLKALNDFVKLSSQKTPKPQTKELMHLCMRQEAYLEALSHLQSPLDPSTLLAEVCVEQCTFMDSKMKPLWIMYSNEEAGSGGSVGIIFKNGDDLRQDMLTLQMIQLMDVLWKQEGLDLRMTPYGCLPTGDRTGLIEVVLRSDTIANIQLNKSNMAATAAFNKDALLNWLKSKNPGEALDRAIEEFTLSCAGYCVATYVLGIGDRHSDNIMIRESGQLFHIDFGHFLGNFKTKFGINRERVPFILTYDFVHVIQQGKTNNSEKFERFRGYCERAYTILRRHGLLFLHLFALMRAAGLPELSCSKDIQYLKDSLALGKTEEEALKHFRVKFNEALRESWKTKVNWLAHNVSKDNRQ
PI3KD, sequence (P27986 whole entry partner): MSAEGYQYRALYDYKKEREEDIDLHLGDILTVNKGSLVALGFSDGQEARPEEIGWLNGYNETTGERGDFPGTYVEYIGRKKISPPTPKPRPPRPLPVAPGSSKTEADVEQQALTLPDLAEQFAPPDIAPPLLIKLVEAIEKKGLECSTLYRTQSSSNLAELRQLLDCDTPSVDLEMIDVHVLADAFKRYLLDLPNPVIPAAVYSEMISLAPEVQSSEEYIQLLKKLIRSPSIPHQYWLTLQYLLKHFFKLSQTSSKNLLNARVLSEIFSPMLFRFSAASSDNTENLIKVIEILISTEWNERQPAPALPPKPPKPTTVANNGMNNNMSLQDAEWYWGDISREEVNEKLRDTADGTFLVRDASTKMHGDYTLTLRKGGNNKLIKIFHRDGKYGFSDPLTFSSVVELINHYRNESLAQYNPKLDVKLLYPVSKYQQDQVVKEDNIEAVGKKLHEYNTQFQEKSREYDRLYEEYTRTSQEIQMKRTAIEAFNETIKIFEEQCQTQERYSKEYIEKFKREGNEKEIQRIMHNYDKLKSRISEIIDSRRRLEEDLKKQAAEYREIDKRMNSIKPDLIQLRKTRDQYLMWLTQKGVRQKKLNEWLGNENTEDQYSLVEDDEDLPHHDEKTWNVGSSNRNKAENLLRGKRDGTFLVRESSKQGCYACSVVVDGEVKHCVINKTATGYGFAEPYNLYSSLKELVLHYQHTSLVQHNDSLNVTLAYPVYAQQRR

As a reminder, the chromatographic logD is lipophilicity estimated from chromatographic retention. High values mean higher lipophilicity, low ones lower lipophilicity. In data set [1], `Nc1ccc2c(-c3ccncc3)c(-c3ccc(Cl)c(O)c3)[nH]c2n1` [Compound 15] had an LE of 0.44. This compound registered an LLE in data set [1] of 4.9. Also, the IC50 was found to be 10 µM in data set [2]; 20 µM in data set [3]; 5 µM in data set [4]; 0.022 µM in data set [6]; 4 µM in data set [7]. Besides, in data set [5], the chromatographic logD turned out to be 2.1.
The compound `Nc1nc(Nc2cccc3cnccc23)nn1C(=O)C1CCCCC1` [Compound 16] registered an LE in data set [1] of 0.4. Moreover, the LLE in data set [1] was 3.6. Also, the IC50 in data set [2] is above 50.1 µM; in data set [3], 79.4 µM; in data set [4], above 31.6 µM; in data set [6], 0.09 µM; in data set [7], 4 µM. This compound gave a chromatographic logD in data set [5] of 4.6.

Values taken from article PMC6504873, “High-throughput screening of the Plasmodium falciparum cGMP-dependent protein kinase identified a thiazole scaffold which kills erythrocytic and sexual stage parasites” (Scientific Reports, 2019).
